Results published in US7361643B2, “Methods for inhibiting angiogenesis” (University of Puerto Rico, priority 2000, dated 2008).

Tested on: bovine adrenal medullary microvascular endothelial cells
Assay: Cell cycle and apoptosis by flow cytometry (propidium iodide)
Format: cell-based
Protocol: Regarding flow cytometry, assessment of the cell cycle was determined by propidium iodide staining of fixed cell nuclei followed by flow cytometry in a FacSort (Beckton Dickinson) according to the method of Krishan (1975) as modified by Vindelov (1977), as discussed in KRISHAN, “Rapid Flow Cytofluorometric Analysis of Mammalian Cell Cycle by Propidium Iodide Staining”, J. Cell Biol., 66:188-193 (1975); and VINDELOV, “Flow Cytometric Analysis of Nuclear DNA in Cells from Solid Tumors and Cell Suspensions”, Virchows Arch (B), 24:227-231(1977), the disclosures of which are herein incorporated by reference in their entireties. Briefly, cells were trypsinized, and pelleted by centrifugation at 900 rpm in a bench top centrifuge (Sorvall T6000B). After washing twice with PBS the cell pellet was resuspended in propidium iodide-buffer (PI-buffer; 10 mM Tris-HCl, pH 8.0 containing 10 mM NaCl, 0.7 μM PI, 700 units/liter RNase, and 0.1% (v/v) NP-40), kept in ice for 30 minutes and then fixed with 2% (v/v) paraformaldehyde. After FacSort calibration, 3000 events were counted per sample. Acquisition and analysis of data were carried out by using Cell Quest flow cytometry software (Macintosh-based). Gates: M1=G0/G1, M2=S, M3=G2+M, M4=apoptosis.
Proliferation and Differentiation of Capillary Endothelial Cells: 2.0×10^4 cells were seeded per well in 24-well clusters in 1 ml complete EMEM containing 10% (v/v) serum and allowed to grow for 72 hours. Media were removed and the cells were washed twice with phosphate-buffer saline, pH 7.4 (PBS). Cells were synchronized by incubating for 48 hours in 2 mM hydroxyurea in serum-free EMEM with glutamine (2 mM) and one-third of penicillin-streptomycin used in a regular culture condition, followed by incubating 24 hours in serum-free EMEM, as discussed in CAO et al., “Modified Method of Mammalian Cell Synchronization Improves Yield and Degree of Synchronization”, Exp. Cell Res., 193:405-410 (1991), the disclosure of which is herein incorporated by reference in its entirety. Cells were routinely monitored by light microscopy. For proliferation assay, cells were trypsinized and counted in a hemacytometer. Viability of cells was determined by trypan blue (0.4% (v/v)) exclusion. Statistical analysis was carried out by StatView II software (Macintosh). Quantitation of cellular differentiation was carried out by observing under a Nikon AlphaShot inverted microscope, and counting the number of capillary lumen-like structures in five randomly selected fields per sample. The results were expressed as percent of its corresponding control after normalization of cell numbers. Analysis of Cell Cycle by Flow Cytometry: Assessment of the cell cycle was determined by propidium iodide staining of fixed cell nuclei followed by flow cytometry in a FacSort (Beckton Dickinson) according to the method of Krishan (1975) as modified by Vindelov (1977), as discussed in KRISHAN, “Rapid Flow Cytometric Analysis of Mammalian Cell Cycle by Propidium Iodide Staining”, J. Cell Biol. 66:188-195 (1975); and VINDELOV, “Flow Cytometric Analysis of Nuclear DNA in Cells from Solid Tumors and Cell Suspensions”, Virchows Arch (B), 24:227-231 (1977), the disclosures of which are herein incorporated by reference in their entireties. Briefly, cells were trypsinized, and pelleted by centrifugation at 900 rpm in a bench top centrifuge (Sorvall T6000B). After washing twice with PBS the cell pellet was resuspended in propidium iodide-buffer (PI-buffer; 10 mM Tris-HCl, pH 8.0 containing 10 mM NaCl, 0.7 μM PI, 700 units/liter RNase, and 0.1% (v/v) NP-40), kept in ice for 30 minutes and then fixed with 2% (v/v) paraformaldehyde. After FacSort calibration, 3000 events were counted per sample. Acquisition and analysis of data were carried out by using Cell Quest flow cytometry software (Macintosh-based). Gates: M1 G0/G1, M2=S, M3=G2+M, M4=apoptosis.

tunicamycin
completion of the cell cycle (1 μg/ml tunicamycin): never completed the cell cycle | cell population entered into apoptosis (1 μg/ml tunicamycin, 32 hours exposure, synchronized cells, EMEM 2% (v/v) FBS): ~70% | apoptosis by flow cytometric analysis (in words) (in the presence of tunicamycin): underwent apoptosis
